Reference: patent US20250289789A1, “REVERSIBLE LYSINE COVALENT MODIFIERS OF CDK2 AND USES THEREOF” (Terremoto Biosciences, Inc., priority 2023, published 2025)
Read-outs that look alike come from different tables or passages of the source.

Experiments:
Type in all cases: cell-based
[1] = target: T1, CDK1-NanoLuc fusion with CCNB1 in 293T or 293 cells (Homo sapiens, UniProt P06493); experiment: NanoBRET Target Engagement (TE) Intracellular Kinase Assay, CDK1/CCNB1; conditions: NanoBRET TE intracellular kinase assay, 2-hour incubation, read-out: NanoBRET-CDK1/B1 IC50
T1 construct: host or cells: 293T (ATCC CRL-3216) or 293 (ATCC CRL-1573)
In short: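 IC50 derived by four-parameter logistic fit of DMSO-normalized acceptor/donor (610/450 nm) BRET ratio. Compound and Tracer K-10 were applied together for 2 h at 37° C to 293 or 293T cells transfected 24 h earlier with CDK1-NanoLuc fusion and cyclin B1.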

[2] = target: T2, CDK2-NanoLuc fusion with CCNE1 in 293T or 293 cells (Homo sapiens, UniProt P24941); experiment: NanoBRET Target Engagement (TE) Intracellular Kinase Assay, CDK2/CCNE1; conditions: 2-hour incubation
T2 construct: host or cells: 293T (ATCC CRL-3216) or 293 (ATCC CRL-1573)

[3] = target: T3, CDK4-NanoLuc fusion with CCND1 in 293T or 293 cells (Homo sapiens, UniProt P11802); experiment: NanoBRET Target Engagement (TE) Intracellular Kinase Assay, CDK4/CCND1; conditions: NanoBRET TE intracellular kinase assay, 2-hour incubation, read-out: NanoBRET-CDK4/D1 IC50
T3 construct: host or cells: 293T (ATCC CRL-3216) or 293 (ATCC CRL-1573)

[4] = system: Phospho-Rb Ser807/811 in OVCAR3 cells; experiment: OVCAR3 Phospho-Rb Ser807/811 HTRF assay; conditions: Homo sapiens, read-out: pRb-OVCAR3 IC50
Description: Cells were trypsinized and resuspended in 1 mM hydroxyurea (Sigma; H8627), 90% RPMI and 10% fetal bovine serum. […] Dose response curve normalized to DMSO control was plotted using four-parameter logistic model for IC50 calculation.

[5] = NanoBRET TE intracellular kinase assay, read-out: NanoBRET-CDK2/E1 IC50
[6] = OVCAR-3, 1 h, OVCAR3 cells, Phospho-Rb Ser807/811 HTRF, 1 hour incubation
[7] = OVCAR-3, OVCAR3 cells, Phospho-Rb Ser807/811 HTRF, 1 hour incubation

T1 sequence (P06493 whole entry, the tested form may be a part): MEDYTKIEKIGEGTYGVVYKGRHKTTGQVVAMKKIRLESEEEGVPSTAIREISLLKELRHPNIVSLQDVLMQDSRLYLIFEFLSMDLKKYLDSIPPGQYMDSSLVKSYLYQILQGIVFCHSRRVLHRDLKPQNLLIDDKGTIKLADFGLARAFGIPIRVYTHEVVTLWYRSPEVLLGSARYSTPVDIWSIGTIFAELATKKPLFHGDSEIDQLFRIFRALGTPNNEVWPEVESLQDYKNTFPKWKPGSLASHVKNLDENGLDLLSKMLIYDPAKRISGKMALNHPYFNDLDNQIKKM
T1 sequence (P14635 whole entry partner, the tested form may be a part): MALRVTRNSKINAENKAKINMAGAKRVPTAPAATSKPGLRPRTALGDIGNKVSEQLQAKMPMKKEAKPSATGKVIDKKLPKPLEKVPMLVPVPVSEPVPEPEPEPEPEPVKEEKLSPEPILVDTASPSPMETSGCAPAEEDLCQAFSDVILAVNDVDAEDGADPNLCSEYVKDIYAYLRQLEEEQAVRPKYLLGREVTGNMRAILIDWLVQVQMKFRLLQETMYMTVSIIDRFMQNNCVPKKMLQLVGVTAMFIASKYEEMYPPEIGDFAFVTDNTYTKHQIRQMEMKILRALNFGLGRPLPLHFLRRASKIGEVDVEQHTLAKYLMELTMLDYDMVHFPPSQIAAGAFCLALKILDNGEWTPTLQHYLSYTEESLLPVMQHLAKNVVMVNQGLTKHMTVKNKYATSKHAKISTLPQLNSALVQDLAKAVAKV
T3 sequence (P11802 whole entry, the tested form may be a part): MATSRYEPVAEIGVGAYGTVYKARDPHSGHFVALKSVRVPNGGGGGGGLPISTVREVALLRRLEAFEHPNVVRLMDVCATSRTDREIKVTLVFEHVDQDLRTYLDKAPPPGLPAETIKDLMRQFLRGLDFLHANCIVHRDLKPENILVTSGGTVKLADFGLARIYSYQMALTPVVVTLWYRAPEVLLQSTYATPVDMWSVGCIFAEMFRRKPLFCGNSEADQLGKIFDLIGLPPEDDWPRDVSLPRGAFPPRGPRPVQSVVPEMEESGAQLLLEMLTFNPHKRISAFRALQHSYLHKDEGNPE
T3 sequence (P24385 whole entry partner, the tested form may be a part): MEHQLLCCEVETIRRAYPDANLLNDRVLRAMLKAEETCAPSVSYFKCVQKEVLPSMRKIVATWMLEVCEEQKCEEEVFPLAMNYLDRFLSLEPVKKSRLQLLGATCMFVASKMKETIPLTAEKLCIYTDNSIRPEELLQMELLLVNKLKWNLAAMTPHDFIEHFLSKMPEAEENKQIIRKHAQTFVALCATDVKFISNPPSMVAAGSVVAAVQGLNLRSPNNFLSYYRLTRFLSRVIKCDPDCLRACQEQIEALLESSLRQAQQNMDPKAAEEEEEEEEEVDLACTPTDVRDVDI

Row | IC50 [1] [nM] | IC50 [2, 5] [nM] | IC50 [3] [nM] | IC50 [4, 6] [nM] | Structure (SMILES) | IC50 [4, 7] [nM] | IC50 ([4]; OVCAR-3, 1 h) [nM] | IC50 ([2]; NanoBRET-CDK2/E1 IC50, NanoBRET TE intracellular kinase assay) [nM]
1 | 30.6 | 6.48 | 4090 | 326 | Cc1cc(O)c(C=O)c(O[C@@H](C)C(=O)Nc2cc([C@H]3CC[C@@H](OC(=O)NC(C)C)C3)[nH]n2)c1 [Compound 252] |  |  | 
2 | 7.64 | 2.9 | 5360 | 27.7 | CCCNC(=O)O[C@H]1C[C@@H](c2cc(NC(=O)COc3cc(OC)cc(OC)c3C=O)n[nH]2)C1 [Compound 110, (1s,3s)-3-(3-(2-(2-formyl-3,5-dimethoxyphenoxy)acetamido)-1H-pyrazol-5-yl)cyclobutyl propylcarbamate] |  |  | 
3 | 39.2 | 5.56 | 1150 | 662 | CC(C)NC(=O)O[C@@H]1CC[C@H](c2cc(NC(=O)Cc3ccc(-c4cccc(O)c4C=O)cc3)n[nH]2)C1 [Compound 68, (1R,3S)-3-[5-(2-{2′-formyl-3′-hydroxy-[1,1′-biphenyl]-4-yl}acetamido)-2H-pyrazol-3-yl]cyclopentyl N-isopropylcarbamate; trifluoroacetic acid] |  |  | 
4 | 25.3 | 2.65 | 1820 | 112 | Cc1cc(C(=O)Nc2cc([C@H]3CC[C@@H](OC(=O)NC(C)C)C3)[nH]n2)cc(C=O)c1O [Compound 15, (1R,3S)-3-(3-(3-formyl-4-hydroxy-5-methylbenzamido)-1H-pyrazol-5-yl)cyclopentyl isopropylcarbamate trifluoroacetic acid] |  |  | 
5 | 30.1 | 4.72 | > 10000 | 35.6 | COCCNC(=O)O[C@@H]1CC[C@H](c2cc(NC(=O)COc3cc(OC)cc(O)c3C=O)n[nH]2)C1 [Compound 213] |  |  | 
6 | 224 | 98.9 | 9430 | 1170 | CC(C)NC(=O)O[C@@H]1CC[C@H](c2cc(NC(=O)COc3cc(C#N)cc(O)c3C=O)n[nH]2)C1 [Compound 47, 1R,3S)-3-(3-(2-(5-cyano-2-formyl-3-hydroxyphenoxy)acetamido)-1H-pyrazol-5-yl)cyclopentyl isopropylcarbamate] |  |  | 
7 | 9.45 | 2.78 | 6110 | 33 | COc1cc(O)c(C=O)c(OCC(=O)Nc2cc([C@H]3CC[C@@H](OC(=O)N4CCC(F)(F)C4)C3)[nH]n2)c1 [Compound 246] |  |  | 
8 | 25.2 | 3.95 | > 10000 | 132 | COc1cc(O)c(C=O)c(OCC(=O)Nc2cc([C@H]3CC[C@@H](OC(=O)N(C)N(C)C)C3)[nH]n2)c1 [Compound 172, (1R,3S)-3-(3-(2-(2-formyl-3-hydroxy-5-methoxyphenoxy)acetamido)-1H-pyrazol-5-yl)cyclopentyl 1,2,2-trimethylhydrazine-1-carboxylate] |  |  | 
9 | 4.59 | 3.48 | 2040 | 26.3 | COc1cc(O)c(C=O)c(OCC(=O)Nc2cc([C@H]3CC[C@@H](OC(=O)N4CCOCC45CC5)C3)[nH]n2)c1 [Compound 205] |  |  | 
10 | 436 | 8.38 | > 10000 | 477 | COCc1cc(O)c(C=O)c(OCC(=O)Nc2cc([C@H]3CC[C@@H](OC(=O)NC(C)C)C3)[nH]n2)c1 [Compound 72, (1R,3S)-3-(3-(2-(2-formyl-3-hydroxy-5-(methoxymethyl)phenoxy)acetamido)-1H-pyrazol-5-yl)cyclopentyl isopropylcarbamate] |  |  | 
11 | 29.5 | 7.06 | 3950 | 523 | COc1ccc(-c2cc(C(=O)Nc3cc([C@H]4CC[C@@H](OC(=O)NC(C)C)C4)[nH]n3)n(C)n2)c(C=O)c1O [Compound 74, (1R,3S)-3-{5-[5-(2-formyl-3-hydroxy-4-methoxyphenyl)-2-methylpyrazole-3-amido]-2H-pyrazol-3-yl}cyclopentyl N-isopropylcarbamate; trifluoroacetic acid] |  |  | 
12 | 21 | 2.85 | > 10000 | 57.8 | COc1cc(O)c(C=O)c(OCC(=O)Nc2cc([C@H]3CC[C@@H](OC(=O)N4CCOCC4)C3)[nH]n2)c1 [Compound 230] |  |  | 
13 | 20.5 | 5.32 | 3060 | 272 | CC(C)NC(=O)O[C@@H]1CC[C@H](c2cc(NC(=O)c3cc(-c4cccc(NS(C)(=O)=O)c4C=O)nn3C)n[nH]2)C1 [Compound 41, (1R,3S)-3-{5-[5-(2-formyl-3-methanesulfonamidophenyl)-2-methylpyrazole-3-amido]-2H-pyrazol-3-yl}cyclopentyl N-isopropylcarbamate; trifluoroacetic acid] |  |  | 
14 | 4.17 | 1.42 | 1320 | 21.2 | COc1cc(O)c(C=O)c(OCC(=O)Nc2cc([C@H]3CC[C@@H](OC(=O)N(C)C(C)C)C3)[nH]n2)c1 [Compound 244, (1R,3S)-3-{5-[2-(2-formyl-3-hydroxy-5-methoxyphenoxy)acetamido]-2H-pyrazol-3-yl}cyclopentyl N-isopropyl-N-methylcarbamate] |  |  | 
15 | 10.8 | 2.28 | 848 | 125 | COc1cc(O)c(C=O)c(-c2cc(C(=O)Nc3cc([C@H]4CC[C@@H](OC(=O)NC(C)C)C4)[nH]n3)n(C)n2)c1 [Compound 48, (1R,3S)-3-{5-[5-(2-formyl-3-hydroxy-5-methoxyphenyl)-2-methylpyrazole-3-amido]-2H-pyrazol-3-yl}cyclopentyl N-isopropylcarbamate; trifluoroacetic acid] |  |  | 
16 | 8.56 | 1.71 | 5250 | 24.1 | CCCNC(=O)O[C@@H]1CC[C@H](c2cc(NC(=O)COc3cc(OC)cc(O)c3C=O)n[nH]2)C1 [Compound 221] |  |  | 
17 | 4.5 | 1.5 | 1190 | 26.6 | COc1cc(O)c(C=O)c(OCC(=O)Nc2cc([C@H]3CC[C@@H](OC(=O)NC45CC(C4)C5)C3)[nH]n2)c1 [Compound 249, (1R,3S)-3-{5-[2-(2-formyl-3-hydroxy-5-methoxyphenoxy)acetamido]-2H-pyrazol-3-yl}cyclopentyl N-{bicyclo[1.1.1]pentan-1-yl}carbamate] |  |  | 
18 | 6.31 | 2.98 | 1070 | 21.8 | COc1cc(O)c(C=O)c(OCC(=O)Nc2cc([C@H]3CC[C@@H](OC(=O)N4[C@@H](C)COC[C@@H]4C)C3)[nH]n2)c1 [Compound 212] |  |  | 

Row | Structure (SMILES) | IC50 [1] [nM] | IC50 [2, 5] [nM] | IC50 [3] [nM] | IC50 [4, 6] [nM] | IC50 [4, 7] [nM] | IC50 ([4]; OVCAR-3, 1 h) [nM] | IC50 ([2]; NanoBRET-CDK2/E1 IC50, NanoBRET TE intracellular kinase assay) [nM]
19 | CC(C)NC(=O)O[C@@H]1CC[C@H](c2cc(NC(=O)c3cnn(-c4cccc(O)c4C=O)c3)n[nH]2)C1 [Compound 8, (1R,3S)-3-{5-[1-(2-formyl-3-hydroxyphenyl)pyrazole-4-amido]-2H-pyrazol-3-yl}cyclopentyl N-isopropylcarbamate; trifluoroacetic acid] | 73.5 | 24.9 | 5460 |  | 880 |  | 
20 | COc1cc(O)c(C=O)c(OCC(=O)Nc2cc([C@H]3CC[C@@H](OC(=O)N4CC5CC(C5)C4)C3)[nH]n2)c1 [Compound 226] | 9.17 | 2.45 | 3060 | 63.7 |  |  | 
21 | COc1cc(O)c(C=O)c(-n2cc(CC(=O)Nc3cc([C@H]4CC[C@@H](OC(=O)NC(C)C)C4)[nH]n3)cn2)c1 [Compound 79, (1R,3S)-3-(5-{2-[1-(2-formyl-3-hydroxy-5-methoxyphenyl)pyrazol-4-yl]acetamido}-2H-pyrazol-3-yl) cyclopentyl N-isopropylcarbamate] | 47 | 14.2 | 727 |  |  | 505 | 
22 | C[C@H]1CCCN1C(=O)O[C@@H]1CC[C@H](c2cc(NC(=O)COc3cccc(O)c3C=O)n[nH]2)C1 [Compound 102, (S)-((1R,3S)-3-(3-(2-(2-formyl-3-hydroxyphenoxy)acetamido)-1H-pyrazol-5-yl)cyclopentyl) 2-methylpyrrolidine-1-carboxylate; trifluoroacetic acid] | 8.39 |  | 2860 |  | 78.2 |  | 4.16
23 | COc1cc(O)c(C=O)c(OCC(=O)Nc2cc([C@H]3C[C@@H](OC(=O)N4C5COCC4C5)C3)[nH]n2)c1 [Compound 111, (1s,3s)-3-(3-(2-(2-formyl-3-hydroxy-5-methoxyphenoxy)acetamido)-1H-pyrazol-5-yl)cyclobutyl 3-oxa-6-azabicyclo[3.1.1]heptane-6-carboxylate] | 21 | 5.45 | > 10000 | 79.8 |  |  | 
24 | CC(C)NC(=O)O[C@@H]1CC[C@H](c2cc(NC(=O)Cc3ccc(O)c(C=O)c3)n[nH]2)C1 [Compound 5, (1R,3S)-3-{5-[2-(3-formyl-4-hydroxyphenyl)acetamido]-2H-pyrazol-3-yl}cyclopentyl N-isopropylcarbamate] | 5.54 | 6.58 | 52.6 |  |  | 187 | 
